The source made the active and inactive calls. The calls are words filed in the database; no cut-off is given here.
Legend:
[1] = molecular target: T1, Tyrosine-protein phosphatase non-receptor type 11 (Homo sapiens) (UniProt Q06124); assay: Inhibition of phosphatase activity of SHP2 (unknown origin) using pNPP as a substrate at 50 uM after 10 mins by spectrophotometer analysis
T1 sequence (whole entry): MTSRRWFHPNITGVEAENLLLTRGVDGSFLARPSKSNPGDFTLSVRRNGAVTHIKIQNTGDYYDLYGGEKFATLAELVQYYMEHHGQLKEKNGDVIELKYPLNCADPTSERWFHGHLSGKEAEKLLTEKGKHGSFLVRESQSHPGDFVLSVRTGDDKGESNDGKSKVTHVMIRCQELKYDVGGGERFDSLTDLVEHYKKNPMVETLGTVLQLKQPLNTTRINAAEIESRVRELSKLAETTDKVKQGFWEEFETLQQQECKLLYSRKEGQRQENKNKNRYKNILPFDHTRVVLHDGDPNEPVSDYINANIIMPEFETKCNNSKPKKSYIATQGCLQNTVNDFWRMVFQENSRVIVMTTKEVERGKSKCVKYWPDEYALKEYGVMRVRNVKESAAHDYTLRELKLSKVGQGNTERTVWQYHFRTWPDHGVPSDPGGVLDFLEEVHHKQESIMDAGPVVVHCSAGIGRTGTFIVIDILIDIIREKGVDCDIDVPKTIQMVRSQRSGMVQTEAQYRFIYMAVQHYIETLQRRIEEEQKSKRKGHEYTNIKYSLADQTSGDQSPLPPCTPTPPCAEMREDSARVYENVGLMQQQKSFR

NCI-H1975 = assay: Cytotoxicity against human NCI-H1975 cells by MTT assay; assay type: functional, cell-based
MDA-MB-231 = assay: Cytotoxicity against human MDA-MB-231 cells by MTT assay; assay type: functional, cell-based

inhibition [1]	SMILES	Activity (NCI-H1975)	Activity (MDA-MB-231)
inactive	O=C(O)C(=O)Nc1cccc(NC(=O)C(c2ccccc2)S(=O)(=O)O)c1 (stereo not given)		
inactive	O=C(O)C(=O)Nc1ccc(CNC(=O)C(c2ccccc2)S(=O)(=O)O)cc1 (stereo not given)		
	CC(C)c1ccc(NC(=O)C(=O)Nc2ccc(NC(=O)C(c3ccccc3)S(=O)(=O)O)cc2)cc1 (stereo not given)	Dose-dependent effect	Dose-dependent effect
inactive	O=C(O)C(=O)NCc1ccc(NC(=O)C(c2ccccc2)S(=O)(=O)O)cc1 (stereo not given)		

— ChEMBL document CHEMBL3608232, “Exploring the Existing Drug Space for Novel pTyr Mimetic and SHP2 Inhibitors” (ACS Med Chem Lett, 2015)
